Measurements published in PubChem BioAssay AID206 (DTP/NCI, 2004).
Several values for one entry are separate records, joined by “and”; a condition that tells them apart may be missing. Identical values can stand only once. Results filed as inconclusive are left out.

Tested on: nude mice, HT29 intrarenal xenograft, tumor weight T/C
Test: NCI In Vivo Anticancer Drug Screen. Data for tumor model HT29;CX-1 Human Adenocarcinoma (MER+) (intrarenal inoculation) in NU/NU Swiss (nude) mice
Details: endpoint: mean tumor weight change, higher = larger tumour
Summary of the method: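 Endpoint measured as tumor size or survival; ratio reported is treated group over vehicle controls.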

[1] = dose: 600.0 mg/kg/injection, schedule: Q04DX004 (sc), vehicle: Klucel (hydroxypropylcellulose) (HPC)
[2] = dose: 1200.0 mg/kg/injection, schedule: Q04DX004 (sc), vehicle: Klucel (hydroxypropylcellulose) (HPC)
[3] = dose: 150.0 mg/kg/injection, schedule: Q04DX004 (sc), vehicle: suspension in saline
[4] = dose: 300.0 mg/kg/injection, schedule: Q04DX004 (sc), vehicle: suspension in saline
[5] = dose: 600.0 mg/kg/injection, schedule: Q04DX004 (sc), vehicle: suspension in saline
[6] = dose: 1200.0 mg/kg/injection, schedule: Q04DX004 (sc), vehicle: suspension in saline
[7] = dose: 75.0 mg/kg/injection, schedule: Q04DX004 (sc), vehicle: saline with Tween-80
[8] = dose: 300.0 mg/kg/injection, schedule: Q04DX004 (sc), vehicle: saline with Tween-80

C[n+]1c2cc(N)ccc2cc2ccc(N)cc21
T/C (dose: 1.56 mg/kg/injection, schedule: Q01DX010 (sc), vehicle: saline): 72 % of control | T/C (dose: 3.13 mg/kg/injection, schedule: Q01DX010 (sc), vehicle: saline): 49 % of control | T/C (dose: 6.25 mg/kg/injection, schedule: Q01DX010 (sc), vehicle: saline): 88 % of control

CC1=CC2c3cccc4[nH]cc(c34)CC2N(C)C1 (stereo unspecified)
T/C (dose: 12.5 mg/kg/injection, schedule: Q04DX004 (sc), vehicle: suspension in saline): 85 % of control | T/C (dose: 25.0 mg/kg/injection, schedule: Q04DX004 (sc), vehicle: suspension in saline): 61 % of control | T/C (dose: 50.0 mg/kg/injection, schedule: Q04DX004 (sc), vehicle: suspension in saline): 90 % of control

C[C@]12C=CC(=O)C=C1CC[C@@H]1[C@@H]2C(=O)C[C@@]2(C)[C@H]1CC[C@]2(O)C(=O)CO
T/C (dose: 150.0 mg/kg/injection, schedule: Q04DX004 (sc), vehicle: Klucel (hydroxypropylcellulose) (HPC)): 18 % of control | T/C [1]: 27 % of control | T/C [2]: 19 % of control

O=NN(CCF)C(=O)NC1CCCCC1
T/C (dose: 6.25 mg/kg/injection, schedule: Q04DX004 (sc), vehicle: Klucel (hydroxypropylcellulose) (HPC)): 55 % of control | T/C (dose: 12.5 mg/kg/injection, schedule: Q04DX004 (sc), vehicle: Klucel (hydroxypropylcellulose) (HPC)): 30 % of control | T/C (dose: 25.0 mg/kg/injection, schedule: Q04DX004 (sc), vehicle: Klucel (hydroxypropylcellulose) (HPC)): 62 % of control

NC(=S)c1ncn(C2OC(CO)C(O)C2O)c1N (stereo unspecified)
T/C [3]: 95 % of control | T/C [4]: 120 % of control | T/C [5]: 102 % of control | T/C [6]: 66 % of control

COc1cc([C@@H]2c3cc4c(c(O)c3C[C@H]3COC(=O)[C@@H]32)OCO4)cc(OC)c1OC
T/C (dose: 2.0 mg/kg/injection, schedule: Q01DX010 (sc), vehicle: saline): 46 % of control | T/C (dose: 4.0 mg/kg/injection, schedule: Q01DX010 (sc), vehicle: saline): 58 % of control | T/C (dose: 8.0 mg/kg/injection, schedule: Q01DX010 (sc), vehicle: saline): 25 % of control

CSC(SC)=C1C(=O)NC(=O)NC1=O
T/C (dose: 18.7 mg/kg/injection, schedule: Q04DX004 (sc), vehicle: suspension in saline): 66 % of control | T/C (dose: 37.5 mg/kg/injection, schedule: Q04DX004 (sc), vehicle: suspension in saline): 77 % of control | T/C (dose: 75.0 mg/kg/injection, schedule: Q04DX004 (sc), vehicle: suspension in saline): 49 % of control | T/C [3]: 56 % of control | T/C [5]: 97 % of control

O=C(/C=C(\Cl)C(=O)NO)NO
T/C (dose: 50.0 mg/kg/injection, schedule: Q04DX004 (sc), vehicle: saline): 102 % of control | T/C (dose: 100.0 mg/kg/injection, schedule: Q04DX004 (sc), vehicle: saline): 172 % of control | T/C (dose: 200.0 mg/kg/injection, schedule: Q04DX004 (sc), vehicle: saline): 86 % of control

C=C1C(C)C2C(Cc3ccccc3)NC(=O)C23C(OC(C)=O)/C=C/C(C)(O)CC(C)C/C=C/C3C1O (stereo unspecified)
T/C (dose: 3.13 mg/kg/injection, schedule: Q04DX004 (sc), vehicle: distilled water + Tween-80): 42 % of control | T/C (dose: 6.25 mg/kg/injection, schedule: Q04DX004 (sc), vehicle: distilled water + Tween-80): 124 % of control | T/C (dose: 12.5 mg/kg/injection, schedule: Q04DX004 (sc), vehicle: distilled water + Tween-80): 87 % of control | T/C (dose: 25.0 mg/kg/injection, schedule: Q04DX004 (sc), vehicle: distilled water + Tween-80): 63 % of control

C[Si](C)(C)n1nnn(-c2ccccc2)c1=O
T/C (dose: 37.5 mg/kg/injection, schedule: Q04DX004 (sc), vehicle: saline with Tween-80): 116 % of control | T/C [7]: 120 % of control | T/C [8]: 116 % of control

Oc1ccc(SCc2ccc(NCc3ccccc3)cc2)cc1
T/C (dose: 400.0 mg/kg/injection, schedule: Q01DX009 (sc), vehicle: saline with Tween-80): 50 % of control | T/C (dose: 500.0 mg/kg/injection, schedule: Q01DX010 (sc), vehicle: saline with Tween-80): 90 % of control | T/C (dose: 800.0 mg/kg/injection, schedule: Q01DX009 (sc), vehicle: saline with Tween-80): 84 % of control | T/C (dose: 1000.0 mg/kg/injection, schedule: Q01DX010 (sc), vehicle: saline with Tween-80): 84 % of control | T/C (dose: 1600.0 mg/kg/injection, schedule: Q01DX009 (sc), vehicle: saline with Tween-80): 49 % of control | T/C (dose: 2000.0 mg/kg/injection, schedule: Q01DX010 (sc), vehicle: saline with Tween-80): 54 % of control

Cc1cc(C)c(-c2cc(O)c(C)cc2O)c(C)c1
T/C [2]: 68 % of control | T/C (dose: 2400.0 mg/kg/injection, schedule: Q04DX004 (sc), vehicle: Klucel (hydroxypropylcellulose) (HPC)): 71 % of control

NS(=O)(=O)OCCCCCCCOS(N)(=O)=O
T/C (dose: 37.5 mg/kg/injection, schedule: Q04DX004 (ip), vehicle: saline with Tween-80): 74 % of control | T/C (dose: 75.0 mg/kg/injection, schedule: Q04DX004 (ip), vehicle: saline with Tween-80): 102 % of control | T/C (dose: 150.0 mg/kg/injection, schedule: Q04DX004 (ip), vehicle: saline with Tween-80): 35 % of control

CN(CO)c1nc(N(C)CO)nc(N(C)CO)n1
T/C (dose: 25.0 mg/kg/injection, schedule: Q01DX010 (sc), vehicle: saline): 65 % of control and 81 % of control | T/C (dose: 100.0 mg/kg/injection, schedule: Q01DX010 (sc), vehicle: saline): 17 % of control

CN(C)N=Nc1cn[nH]c1C(N)=O
T/C [4]: 85 % of control | T/C [5]: 67 % of control | T/C [6]: 74 % of control

O=C(O)CC(NC(=O)CP(=O)(O)O)C(=O)O.[NH-]C1CCCCC1[NH-].[Pt+2] (stereo unspecified)
T/C (dose: 6.25 mg/kg/injection, schedule: Q04DX004 (sc), vehicle: dextrose): 97 % of control | T/C (dose: 12.5 mg/kg/injection, schedule: Q04DX004 (sc), vehicle: dextrose): 25 % of control | T/C (dose: 25.0 mg/kg/injection, schedule: Q04DX004 (sc), vehicle: dextrose): 35 % of control

Nc1nc2c(C(=O)N3CCCC3)nnn2c2ccccc12
T/C [7]: 157 % of control

CCc1ccc(C2=C(O)C(=O)C(c3ccccc3)=C(O)C2=O)cc1
T/C (dose: 75.0 mg/kg/injection, schedule: Q04DX004 (sc), vehicle: Klucel (hydroxypropylcellulose) (HPC)): 159 % of control

Clc1ccc(C2SC=Cc3ccccc32)cc1 (stereo unspecified)
T/C [1]: 48 % of control

Nc1nc(=S)c2[nH]cnc2[nH]1
T/C (dose: 0.39 mg/kg/injection, schedule: Q01DX010 (sc), vehicle: Klucel (hydroxypropylcellulose) (HPC)): 102 % of control | T/C (dose: 0.78 mg/kg/injection, schedule: Q01DX010 (sc), vehicle: Klucel (hydroxypropylcellulose) (HPC)): 91 % of control

COc1cccc2c1C(=O)c1c(O)c3c(c(O)c1C2=O)C[C@@](O)(/C(C)=N/NC(=O)c1ccc(Cl)cc1)C[C@@H]3OC1CC(N)C(O)C(C)O1 (stereo partly specified)
T/C (dose: 10.0 mg/kg/injection, schedule: Q04DX004 (sc), vehicle: water): 88 % of control | T/C (dose: 20.0 mg/kg/injection, schedule: Q04DX004 (sc), vehicle: water): 39 % of control | T/C (dose: 80.0 mg/kg/injection, schedule: Q04DX004 (sc), vehicle: water): 25 % of control

NC(=S)N/N=C\c1ncccc1OCc1cccc(N)c1
T/C (dose: 225.0 mg/kg/injection, schedule: Q04DX004 (sc), vehicle: saline with Tween-80): 220 % of control | T/C (dose: 450.0 mg/kg/injection, schedule: Q04DX004 (sc), vehicle: saline with Tween-80): 102 % of control | T/C (dose: 900.0 mg/kg/injection, schedule: Q04DX004 (sc), vehicle: saline with Tween-80): 121 % of control | T/C (dose: 1800.0 mg/kg/injection, schedule: Q04DX004 (sc), vehicle: saline with Tween-80): 99 % of control

CN(C)P(=O)(Oc1ccccc1)N(C)C
T/C [7]: 183 % of control | T/C (dose: 150.0 mg/kg/injection, schedule: Q04DX004 (sc), vehicle: saline with Tween-80): 122 % of control | T/C [8]: 62 % of control | T/C (dose: 600.0 mg/kg/injection, schedule: Q04DX004 (sc), vehicle: saline with Tween-80): 40 % of control

O=C(O)C1(C(=O)O)CCC1.[NH2-].[NH2-].[Pt+2]
T/C (dose: 25.0 mg/kg/injection, schedule: Q01DX010 (sc), vehicle: dextrose): 66 % of control and 91 % of control | T/C (dose: 50.0 mg/kg/injection, schedule: Q01DX010 (sc), vehicle: dextrose): 17 % of control

CC(=O)Nc1ccc(C(=O)C=O)cc1
T/C (dose: 50.0 mg/kg/injection, schedule: Q01DX010 (sc), vehicle: saline with Tween-80): 57 % of control | T/C (dose: 100.0 mg/kg/injection, schedule: Q01DX010 (sc), vehicle: saline with Tween-80): 88 % of control | T/C (dose: 200.0 mg/kg/injection, schedule: Q01DX010 (sc), vehicle: saline with Tween-80): 68 % of control | T/C (dose: 400.0 mg/kg/injection, schedule: Q01DX010 (sc), vehicle: saline with Tween-80): 26 % of control | T/C (dose: 800.0 mg/kg/injection, schedule: Q01DX010 (sc), vehicle: saline with Tween-80): 78 % of control
